Results from ChEMBL document CHEMBL1201862, “PubChem BioAssay data set” (2004).
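Tested at 5 concentrations; 48 h exposure; 96-well plates; endpoints linearly interpolated, else capped at highest concentration. Abbreviation: GI50, concentration required for 50% inhibition of growth.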 Calls of active or inactive are those of the source. Cut-off read from the data, not from the text of the source: active = GI50 up to about 1.1 µM and inactive = higher.

Key:
Test in all cases: NCI tumour cell line growth inhibition, 48 h
786-0 = tested on: 786-0
A498 = tested on: A498
A549 = tested on: A549
ACHN = tested on: ACHN
BT-549 = tested on: BT-549
CAKI-1 = tested on: CAKI-1
CCRF-CEM = tested on: CCRF-CEM
COLO 205 = tested on: COLO 205
DU-145 = tested on: DU-145
EKVX = tested on: EKVX
HCC 2998 = tested on: HCC 2998
HCT-116 = tested on: HCT-116
HCT-15 = tested on: HCT-15
HL-60 = tested on: HL-60
HOP-62 = tested on: HOP-62
HOP-92 = tested on: HOP-92
HT-29 = tested on: HT-29
Hs-578T = tested on: Hs-578T
IGROV-1 = tested on: IGROV-1
K562 = tested on: K562
KM12 = tested on: KM12
LOX IMVI = tested on: LOX IMVI
M14 = tested on: M14
MCF7 = tested on: MCF7
MDA-MB-231 = tested on: MDA-MB-231
MDA-MB-435 = tested on: MDA-MB-435
MDA-N = tested on: MDA-N
MOLT-4 = tested on: MOLT-4
Malme-3M = tested on: Malme-3M
NCI-H226 = tested on: NCI-H226
NCI-H23 = tested on: NCI-H23
NCI-H460 = tested on: NCI-H460
NCI-H522 = tested on: NCI-H522
NCI/ADR-RES = tested on: NCI/ADR-RES
OVCAR-3 = tested on: OVCAR-3
OVCAR-4 = tested on: OVCAR-4
OVCAR-5 = tested on: OVCAR-5
OVCAR-8 = tested on: OVCAR-8
PC-3 = tested on: PC-3
RPMI-8226 = tested on: RPMI-8226
RXF 393 = tested on: RXF 393
SF-268 = tested on: SF-268
SF-295 = tested on: SF-295
SK-MEL-28 = tested on: SK-MEL-28
SK-MEL-5 = tested on: SK-MEL-5
SK-OV-3 = tested on: SK-OV-3
SN12C = tested on: SN12C
SNB-19 = tested on: SNB-19
SNB-75 = tested on: SNB-75
SR = tested on: SR
SW-620 = tested on: SW-620
T47D = tested on: T47D
TK-10 = tested on: TK-10
U-251 = tested on: U-251
UACC-62 = tested on: UACC-62
UO-31 = tested on: UO-31
SF-539 = tested on: SF-539
UACC-257 = tested on: UACC-257

Measured: GI50

Cc1ccc(-c2cc(-c3ccco3)c(C#N)c(=S)[nH]2)cc1
42 µM: HCT-15
inactive: 786-0 77.3 µM | A498 36.3 µM | A549 43.9 µM | ACHN 35.6 µM | BT-549 42.8 µM | CAKI-1 > 100 µM | CCRF-CEM 38.3 µM | COLO 205 97.3 µM | DU-145 93.5 µM | EKVX 90.6 µM | HCC 2998 67.5 µM | HCT-116 50.5 µM | HL-60 57 µM | HOP-62 > 100 µM | HOP-92 99.5 µM | HT-29 92.3 µM | Hs-578T 38.5 µM | IGROV-1 25.7 µM | K562 41 µM | KM12 63.2 µM | LOX IMVI 34.8 µM | M14 63.8 µM | MCF7 16.2 µM | MDA-MB-231 43.2 µM | MDA-MB-435 23.9 µM | MDA-N > 10 µM | MOLT-4 32.2 µM | Malme-3M 24.2 µM | NCI-H226 31.5 µM | NCI-H23 29.9 µM | NCI-H460 46.2 µM | NCI-H522 44.2 µM | NCI/ADR-RES > 100 µM | OVCAR-3 61.7 µM | OVCAR-4 75.5 µM | OVCAR-5 > 100 µM | OVCAR-8 68.1 µM | PC-3 28.3 µM | RPMI-8226 35.5 µM | RXF 393 55.8 µM | SF-268 40.6 µM | SF-295 38.7 µM | SK-MEL-28 20.8 µM | SK-MEL-5 22.8 µM | SK-OV-3 39.9 µM | SN12C 87.9 µM | SNB-19 32.1 µM | SNB-75 49.8 µM | SR 42.5 µM | SW-620 53.3 µM | T47D 20.4 µM | TK-10 > 100 µM | U-251 21.4 µM | UACC-62 26.8 µM | UO-31 33.9 µM

CCCCCC(=O)CCCCCCCC(O)CC(=O)OCC (configuration not stated)
> 100 µM: HCT-15
inactive: 786-0 > 100 µM | A498 > 100 µM | A549 > 100 µM | ACHN > 100 µM | BT-549 37.8 µM | CAKI-1 > 100 µM | CCRF-CEM > 100 µM | DU-145 > 100 µM | HCC 2998 > 100 µM | HCT-116 > 100 µM | HL-60 48.9 µM | HOP-62 > 100 µM | HOP-92 49.1 µM | HT-29 > 100 µM | Hs-578T > 100 µM | IGROV-1 > 100 µM | K562 > 100 µM | KM12 > 100 µM | LOX IMVI > 100 µM | M14 > 100 µM | MCF7 > 100 µM | MDA-MB-231 > 100 µM | MDA-MB-435 > 100 µM | MDA-N > 100 µM | MOLT-4 > 100 µM | Malme-3M > 100 µM | NCI-H226 > 100 µM | NCI-H23 > 100 µM | NCI-H460 > 100 µM | NCI-H522 > 100 µM | NCI/ADR-RES > 100 µM | OVCAR-3 > 100 µM | OVCAR-5 > 100 µM | OVCAR-8 > 100 µM | PC-3 > 100 µM | RPMI-8226 > 100 µM | SF-268 > 100 µM | SF-295 > 10 µM | SF-539 > 100 µM | SK-MEL-28 > 100 µM | SK-MEL-5 > 100 µM | SN12C > 100 µM | SNB-19 > 100 µM | SR > 100 µM | SW-620 > 100 µM | T47D > 100 µM | TK-10 > 100 µM | U-251 64.3 µM | UACC-257 > 100 µM | UO-31 > 100 µM
